Source: US20130310256A1, “HERBICIDAL COMPOSITIONS COMPRISING 4-AMINO-3-CHLORO-5-FLUORO-6-(4-CHLORO-2-FLUORO-3-METHOXYPHENYL) PYRIDINE-2-CARBOXYLIC ACID OR A DERIVATIVE THEREOF AND VLCFA AND LIPID SYNTHESIS INHIBITING HERBICIDES” (DOW AGROSCIENCES LLC, priority 2008, published 2013)

Experiments:
[1] = tested on: ECHOR; assay: Example II: in-water applied weed control, transplanted paddy rice, greenhouse; format: in vivo, Echinochloa oryzoides (Ard.) Fritsch (early watergrass)
Procedure: (§1) Weed seeds or nutlets of the desired test plant species were planted in puddled soil (mud) prepared by mixing a shredded, non-sterilized mineral soil (50.5 percent silt, 25.5 percent clay, and 24 percent sand, with a pH of about 7.6 and an organic matter content of about 2.9 percent) and water at a 1:1 volumetric ratio. The prepared mud was dispensed in 365 mL aliquots into 16-ounce (oz.) non-perforated plastic pots with a surface area of 86.59 square centimeters (cm^2) leaving a headspace of 3 centimeters (cm) in each pot. Mud was allowed to dry overnight prior to planting or transplanting. Rice seeds were planted in Sun Gro MetroMix® 306 planting mixture, which typically has a pH of 6.0 to 6.8 and an organic matter content of about 30 percent, in plastic plug trays. Seedlings at the second or third leaf stage of growth were transplanted into 840 mL of mud contained in 32-oz. non-perforated plastic pots with a surface area of 86.59 cm^2 4 days prior to herbicide application. The paddy was created by filling the headspace of the pots with 2.5 to 3 cm of water. When required to ensure good germination and healthy plants, a fungicide treatment and/or other chemical or physical treatment was applied. The plants were grown for 4-22 days in a greenhouse with an approximate 14 hr photoperiod which was maintained at about 29′C during the day and 26° C. during the night. Nutrients were added as Osmocote® (19:6:12, N:P:K+ minor nutrients) at 2 g per 16-oz. pot and 4 g per 32-oz. pot. Water was added on a regular basis to maintain the paddy flood, and supplemental lighting was provided with overhead metal halide 1000-Watt lamps as necessary. The plants were employed for testing when they reached the first through fourth true leaf stage.
(§2) Treatments consisted of the acid or esters of 4-amino-3-chloro-5-fluoro-6-(4-chloro-2-fluoro-3-methoxy-phenyl)pyridine-2-carboxylic acid (compound A) each formulated as an SC (suspension concentrate) and various herbicidal components alone and in combination. Forms of compound A were applied on an acid equivalent basis.
(§3) The herbicidal components were applied on an active ingredient basis and included very long chain fatty acid (VLCFA) synthesis-inhibiting and fatty acid/lipid synthesis-inhibiting herbicides acetochlor (technical grade material), acetochlor+dichlormid formulateded as Topnotch®, pretilachlor (technical grade material), butachlor formulated as Butachlor EC, fentrazamide formulated as Fentrazamide EC, thiobencarb formulated as Bolero® 8EC, cafenstrole formulated as Himeadow® WP or Lapost® Flowable, benfuresate formulated as Full Shot®, anilofos (technical grade material), mefenacet (technical grade material), molinate (technical grade material), and thenylchlor (technical grade material).
(§4) Treatment requirements for each compound or herbicidal component were calculated based upon the rates being tested, the concentration of active ingredient or acid equivalent in the formulation, an application volume of 2 mL per component per pot, and an application area of 86.59 cm^2 per pot.
(§5) For formulated compounds, a measured amount was placed in an individual 100 or 200 mL glass vial and was dissolved in a volume of 1.25% (v/v) Agri-Dex® crop oil concentrate to obtain application solutions.
(§6) For technical grade compounds, a weighed amount was placed in an individual 100 to 200 mL glass vial and was dissolved in a volume of acetone to obtain concentrated stock solutions. […] The concentrated stock solutions obtained were diluted with an equivalent volume of an aqueous mixture containing 2.5% (v/v) crop oil concentrate so that the final application solutions contained 1.25% (v/v) crop oil concentrate.
(§7) Applications were made by injecting with a pipetter appropriate amounts of the application solutions, individually and sequentially, into the aqueous layer of the paddy. Control plants were treated in the same manner with the solvent blank. […]

[2] = tested on: LEFCH; assay: Example I: postemergence foliar-applied weed control, greenhouse; format: in vivo, Leptochloa chinensis (L.) Nees (Chinese sprangletop); details: 20 DAA
From the text: (§8) Seeds or nutlets of the desired test plant species were planted in a soil matrix prepared by mixing a loam or sandy loam soil (e.g., 28.6 percent silt, 18.8 percent clay, and 52.6 percent sand, with a pH of about 5.8 and an organic matter content of about 1.8 percent) and calcareous grit in an 80 to 20 ratio. The soil matrix was contained in plastic pots with a volume of 1 quart and a surface area of 83.6 square centimeters (cm^2). When required to ensure good germination and healthy plants, a fungicide treatment and/or other chemical or physical treatment was applied. The plants were grown for 8-22 days in a greenhouse with an approximate 14 hr photoperiod which was maintained at about 29° C. during the day and 26° C. during the night. Nutrients (Peters Excel® 15-5-15 5-Ca 2-Mg and iron chelate) were applied in the irrigation solution as needed and water was added on a regular basis. Supplemental lighting was provided with overhead metal halide 1000-Watt lamps as necessary. The plants were employed for testing when they reached the first through fourth true leaf stage.
as §2, with “(Compound A),” for “(compound A)”, “concentrate),” for “concentrate)”
(§9) Other herbicidal components were applied on an active ingredient basis and included very long chain fatty acid (VLCFA) synthesis-inhibiting and fatty acid/lipid synthesis-inhibiting herbicides acetochlor (technical grade material), acetochlor+dichlormid formulated as Topnotch®, pretilachlor (technical grade material), butachlor formulated as Butachlor EC, fentrazamide formulated as Fentrazamide EC, thiobencarb formulated as Bolero® 8EC, cafenstrole formulated as Himeadow® WP or Lapost® Flowable, benfuresate formulated as Full Shot®, dimethenamid-P formulated as Outlook®, indanofan (technical grade material), flufenacet formulated as Define® DF, mefenacet (technical grade material), S-metolachlor formulated as Dual® II Magnum, pethoxamid formulated as Successor® 600, and pyroxasulfone (technical grade material).
(§10) Treatment requirements were calculated based upon the rates being tested, the concentration of active ingredient or acid equivalent in the formulation, and a 12 mL application volume at a rate of 187 L/ha.
(§11) For treatments comprised of formulated compounds, measured amounts of compounds were placed individually in 25 mL glass vials and diluted in a volume of 1.25% (v/v) Agri-Dex® crop oil concentrated to obtain 12× stock solutions. […] Application solutions were prepared by adding an appropriate amount of each stock solution (e.g., 1 mL) and diluted to the appropriate final concentrations with the addition of 10 mL of an aqueous mixture of 1.25% (v/v) crop oil concentrate so that the final spray solutions contained 1.25+/−0.05% (v/v) crop oil concentrate.
(§12) For treatments comprised of technical compounds, weighed amounts can be placed individually in 25 mL glass vials and dissolved in a volume of 97:3 v/v acetone/DMSO to obtain 12× stock solutions. […] Application solutions can be prepared by adding an appropriate amount of each stock solution (e.g., 1 mL) and diluted to the appropriate final concentrations with the addition of 10 mL of an aqueous mixture of 1.5% (v/v) crop oil concentrate so that the final spray solutions contain 1.25% (v/v) crop oil concentrate. When technical materials are used, the concentrated stock solutions can be added to the spray solutions so that the final acetone and DMSO concentrations of the application solutions are […], respectively. […]

[3] = tested on: ECHCG; assay: as above; format: in vivo, Echinochloa crus-galli (L.) Beauv. (barnyardgrass); details: 20 DAA
From the text: as §8
as §2, with “(Compound A),” for “(compound A)”, “concentrate),” for “concentrate)”
as §9, §10, §11, §12

[4] = tested on: BRAPP; assay: Example I: postemergence foliar-applied weed control, direct seeded rice weeds, greenhouse; format: in vivo; details: 20 DAA
From the text: as §8
as §2, with “(Compound A),” for “(compound A)”, “concentrate),” for “concentrate)”
as §9, §10, §11, §12

[5] = tested on: DIGSA; assay: Example I: postemergence foliar-applied weed control, greenhouse; format: in vivo, Digitaria sanguinalis (L.) Scop. (large crabgrass); details: 20 DAA
From the text: as §8
as §2, with “(Compound A),” for “(compound A)”, “concentrate),” for “concentrate)”
as §9, §10, §11, §12

[6] = tested on: ECHCO; assay: as above; format: in vivo, Echinochloa colona (L.) Link (junglerice); details: 20 DAA
From the text: as §8
as §2, with “(Compound A),” for “(compound A)”, “concentrate),” for “concentrate)”
as §9, §10, §11, §12

[7] = tested on: CYPRO; assay: Example II: in-water applied weed control, transplanted paddy rice, greenhouse; format: in vivo, Cyperus rotundus L. (purple nutsedge)
Procedure: as §1, §2, §3, §4, §5, §6, §7

[8] = tested on: FIMMI; assay: as above; format: in vivo, Fimbristylis miliacea (L.) Vahl (globe fringerush)
Procedure: as §1, §2, §3, §4, §5, §6, §7

[9] = tested on: ECHCG; assay: as above; format: in vivo, Echinochloa crus-galli (L.) Beauv. (barnyardgrass); details: 100 gai/ha
Procedure: as §1, §2, §3, §4, §5, §6, §7

Structure (SMILES): CCN(C(=O)n1nnn(-c2ccccc2Cl)c1=O)C1CCCCC1 [Fentrazamide, 4-(2-chlorophenyl)-N-cyclohexyl-N-ethyl-4,5-dihydro-5-oxo-1H-tetrazole-1-carboxamide]
- Visual Weed Control (%) - 21 DAA ECHOR Obs ([1]; 50 gai/ha): 50%
- Visual Weed Control Obs ([2]; 33.75 gai/ha): 0%
- Visual Weed Control Obs ([2]; 67.5 gai/ha): 0%
- Visual Weed Control Obs ([3]; 16.88 gai/ha): 0%
- Visual Weed Control Obs ([3]; 33.75 gai/ha): 0%
- Visual Weed Control Obs ([3]; 67.5 gai/ha): 20%
- Visual Weed Control Obs ([3]; 75 gai/ha): 0%
- Visual Weed Control Obs ([3]; 150 gai/ha): 5%
- Visual Weed Control Obs ([3]; 300 gai/ha): 13%
- Visual Weed Control Obs ([4]; 16.88 gai/ha): 0%
- Visual Weed Control Obs ([4]; 33.75 gai/ha): 0%
- Visual Weed Control Obs ([4]; 67.5 gai/ha): 55%
- Visual Weed Control Obs ([5]; 33.75 gai/ha): 0%
- Visual Weed Control Obs ([5]; 67.5 gai/ha): 30%
- Visual Weed Control Obs ([6]; 16.88 gai/ha): 0%
- Visual Weed Control Obs ([6]; 33.75 gai/ha): 15%
- Visual Weed Control Obs ([6]; 67.5 gai/ha): 10%

Structure (SMILES): CCOCN(C(=O)CCl)c1c(C)cccc1CC [Acetochlor, 2-chloro-N-(ethoxymethyl)-N-(2-ethyl-6-methylphenyl)acetamide]
- Visual Weed Control (%) - 20 DAA CYPRO Obs ([7]; 100 gai/ha): 20%
- Visual Weed Control (%) - 20 DAA CYPRO Obs ([7]; 200 gai/ha): 75%
- Visual Weed Control (%) - 20 DAA FIMMI Obs ([8]; 100 gai/ha): 80%
- Visual Weed Control (%) - 20 DAA FIMMI Obs ([8]; 200 gai/ha): 20%
- Visual Weed Control (%) - 20 DAA ECHOR Obs ([1]; 100 gai/ha): 80%
- Visual Weed Control (%) - 22 DAA ECHCG Obs [9]: 65%
- Visual Weed Control Obs ([3]; 50 gai/ha): 0%
- Visual Weed Control Obs ([3]; 100 gai/ha): 10%
- Visual Weed Control Obs ([4]; 100 gai/ha): 20%
- Visual Weed Control Obs ([4]; 200 gai/ha): 30%
- Visual Weed Control Obs ([5]; 100 gai/ha): 20%
- Visual Weed Control Obs ([5]; 200 gai/ha): 20%
